How the values were obtained:
[1] = test system: MMP-9; assay: Substrate phage display with NGS: relative probability (RP) of P3-P1' tetramer clusters; type: biochemical, human; conditions: MMP9; RP of the substrate's P3-P1' tetramer, substrate phage display with NGS;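 further: ratio of tetramer probability after protease selection to that in naive phage library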
[2] = target: T1, MMP-2 (Homo sapiens, UniProt P08253); assay: K(obs) of individual phage substrates (set of 1369); type: biochemical; conditions: MMP2; individual phage substrate from the set of 1369 peptides; hyphen in the sequence marks the cleavage position
T1 sequence (P08253 110-660): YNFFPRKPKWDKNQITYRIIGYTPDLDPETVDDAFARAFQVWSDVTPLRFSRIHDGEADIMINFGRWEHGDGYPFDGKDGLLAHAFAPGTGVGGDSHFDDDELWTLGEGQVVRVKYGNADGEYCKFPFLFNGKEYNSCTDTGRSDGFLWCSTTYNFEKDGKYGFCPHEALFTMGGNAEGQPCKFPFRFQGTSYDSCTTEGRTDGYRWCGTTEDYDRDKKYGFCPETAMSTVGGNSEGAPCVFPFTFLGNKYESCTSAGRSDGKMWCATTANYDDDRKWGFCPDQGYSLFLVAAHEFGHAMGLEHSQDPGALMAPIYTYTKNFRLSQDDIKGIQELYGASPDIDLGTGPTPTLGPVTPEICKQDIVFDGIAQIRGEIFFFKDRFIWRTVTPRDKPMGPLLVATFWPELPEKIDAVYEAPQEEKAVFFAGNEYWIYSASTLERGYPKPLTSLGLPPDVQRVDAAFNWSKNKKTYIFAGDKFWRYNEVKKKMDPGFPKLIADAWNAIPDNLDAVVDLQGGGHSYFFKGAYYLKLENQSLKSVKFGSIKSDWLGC

[3] = target: MMP-9 (Homo sapiens, UniProt P14780); assay: as above; type: biochemical; conditions: MMP9; individual phage substrate of the set of 1369 peptides; dash in sequence marks cleavage position
Sequence of MMP-9 (Homo sapiens, UniProt P14780) (P14780 94-707): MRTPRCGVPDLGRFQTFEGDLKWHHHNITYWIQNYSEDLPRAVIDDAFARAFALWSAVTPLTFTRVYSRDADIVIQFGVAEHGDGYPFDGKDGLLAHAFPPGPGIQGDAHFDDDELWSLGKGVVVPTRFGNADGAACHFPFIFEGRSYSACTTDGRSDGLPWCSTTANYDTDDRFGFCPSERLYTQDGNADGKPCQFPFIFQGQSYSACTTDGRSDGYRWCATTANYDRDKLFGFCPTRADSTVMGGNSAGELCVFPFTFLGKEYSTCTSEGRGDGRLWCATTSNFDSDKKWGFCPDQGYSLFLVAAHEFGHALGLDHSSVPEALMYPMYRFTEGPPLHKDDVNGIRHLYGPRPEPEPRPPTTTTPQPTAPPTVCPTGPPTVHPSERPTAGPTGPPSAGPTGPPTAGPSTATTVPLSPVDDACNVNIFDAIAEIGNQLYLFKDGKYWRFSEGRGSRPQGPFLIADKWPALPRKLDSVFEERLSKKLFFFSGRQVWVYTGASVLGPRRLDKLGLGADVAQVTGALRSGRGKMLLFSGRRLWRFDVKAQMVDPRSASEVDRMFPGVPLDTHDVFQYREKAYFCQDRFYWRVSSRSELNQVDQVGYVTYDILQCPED

Row | Substance | relative probability (RP) [1] | Kobs [2] [M⁻¹ s⁻¹] | Kobs [3] [M⁻¹ s⁻¹]
1 | SGVKW-LMSTA | 39.0108 | 4335.13 | 12792.1
2 | SGVLS-LQSTA | 27.5596 | 2916.17 | 7015.91
3 | SGVRA-IRQTA | 39.7636 | 3253.29 | 12792.1
4 | SGVRA-VYSTA | 25.1531 | 3079.62 | 12792.1
5 | SGVRD-LYFTA | 30.416 | 1030.73 | 2916.17
6 | SGVRG-LFTTA | 42.3063 | 6131.32 | 12792.1
7 | SGVRG-MHGTA | 38.9419 | 1610.61 | 5667.28
8 | SGVRS-ITWTA | 25.6748 | 261.974 | 3637.04
9 | SGVRW-STSTA | 18.5117 | 1071.29 | 7015.91
10 | SGVWN-LMSTA | 38.922 | 3438.54 | 12792.1
11 | SGWRA-YTGTA | 29.3104 | 2476.66 | 9740.44
12 | SKPWK-LTASG | 43.1496 | 1561.44 | 12792.1
13 | SLPLL-LTASG | 32.5638 | 2996.69 | 12792.1
14 | SNPFK-YTASG | 32.6605 | 0 | 5461.43
15 | SQLGL-LTASG | 4.41 | 12792.1 | 142.481
16 | SQPMA-YTASG | 49.7335 | 12792.1 | 12792.1
17 | SRPRT-LTASG | 42.2705 | 12792.1 | 12792.1
18 | SRPVY-LTASG | 32.5397 | 12792.1 | 12792.1
19 | SSPLA-LTASG | 48.3776 | 12792.1 | 12792.1
20 | SSPLN-YTASG | 47.778 | 12792.1 | 12792.1
21 | SSVSN-LTASG | 31.0505 | 12792.1 | 1610.61
22 | STIAH-YTASG | 10.3185 | 12792.1 | 451.441
23 | SVLSK-LTASG | 0.5605 | 12792.1 | 0
24 | SVPSA-ITASG | 45.9388 | 12792.1 | 12792.1
25 | SVPST-LTASG | 36.3405 | 12792.1 | 5269.78
26 | SYPRA-YTASG | 46.2238 | 12792.1 | 12792.1
27 | TDIGE-ITASG | 0.4519 | 6131.32 | 0

Row | Substance | relative probability (RP) [1] | Kobs [2] [M⁻¹ s⁻¹] | Kobs [3] [M⁻¹ s⁻¹]
28 | TGPKL-ITASG | 25.2703 | 1071.29 | 6396.07
29 | TIPSW-STASG | 17.8128 | 5461.43 | 2476.66
30 | TLIRY-LTASG | 33.2843 | 10866.7 | 12792.1
31 | TMLLA-LTASG | 6.729 | 12792.1 | 654.784
32 | TNVFW-YTASG | 29.291 | 2409.72 | 10866.7
33 | TPPSS-LTASG | 46.2595 | 12792.1 | 12792.1
34 | TPPVE-LTASG | 35.1044 | 12792.1 | 12792.1
35 | TQPSP-FTASG | 37.3217 | 12792.1 | 9740.44
36 | TSARK-LTASG | 0 | 323.705 | 1112.44
37 | TSPGL-LTASG | 19.6268 | 12792.1 | 690.17
38 | TVLGN-LTASG | 10.3813 | 12792.1 | 690.17
39 | TVPWS-VTASG | 31.0554 | 1071.29 | 12792.1
40 | VDVSF-LTASG | 1.252 | 8941.32 | 912.511
41 | VEAVA-ITASG | 21.5568 | 5090.5 | 4922.1
42 | VFPQG-MTASG | 46.1377 | 2476.66 | 8321.48
43 | VGPAF-LTASG | 38.454 | 12792.1 | 12792.1
44 | VKPSG-VTASG | 31.8733 | 12792.1 | 12792.1
45 | VKPSK-LTASG | 38.9571 | 12792.1 | 12792.1
46 | VLFGA-LTASG | 2.95 | 8321.48 | 386.839
47 | VLLGN-FTASG | 0.6963 | 12792.1 | 690.17
48 | VMPSG-FTASG | 36.6478 | 8321.48 | 12792.1
49 | VQLAY-FTASG | 0.5079 | 12792.1 | 1030.73
50 | VVPNN-LTASG | 38.7188 | 12792.1 | 12792.1
51 | VYPGK-MTASG | 16.9669 | 8941.32 | 1239.69
52 | WAINA-LTASG | 1.369 | 4922.1 | 551.253
53 | WDIRS-LTASG | 30.8005 | 12792.1 | 9740.44
54 | WGTLA-LTASG | 8.919 | 1112.44 | 4613.14

— PMC7932537, “Quantitative profiling of protease specificity” (PLoS Computational Biology, 2021)
